The source of these data is ChEMBL document CHEMBL4813943, “Hybrids of Small-Molecule CD4 Mimics with Polyethylene Glycol Units as HIV Entry Inhibitors” (J Med Chem, 2021).

Data set [1] can be described thus: Stability of the compound assessed as drug degradation at 10 umol measured after 1 mins by HPLC analysis. In kind it is physicochemical. The settings on record: at 10 µmol, read-out: Drug degradation.
Data set [2] is described as follows: Stability of the compound assessed as drug degradation at 10 umol measured after 5 mins by HPLC analysis. Format: physicochemical. The conditions noted are these: at 10 µmol, read-out: Drug degradation.
A short description of data set [3]: Stability of the compound assessed as drug degradation at 10 umol measured after 25 mins by HPLC analysis. Format: physicochemical. The conditions noted are these: at 10 µmol, read-out: Drug degradation.
Data set [4] is described as follows: Cytotoxicity against human TZM-bl cells assessed as reduction in cell viability by Cell Titer-Glo assay. In kind it is cell-based. On the technique in general: ATP-based viability assays read luminescence as a measure of living cells.
For data set [5], the target named is Envelope glycoprotein gp160 (Human immunodeficiency virus 1) (UniProt Q6QLK5). In words: Inhibition of HIV1 KP-5mvcR gp120 interaction with CD4 in human TZM-bl cells assessed as decrease in viral entry at 0.1 uM by […] assay relative to control. In kind it is cell-based. (In general: Formazan colour is commonly taken as a measure of viable cells.)
Data set [6] relates to Simian immunodeficiency virus. The data set is described as follows: Potentiation of KD-247-induced viral neutralizing activity against SHIV KS2661 infected in human TZM-bl cells assessed as fold reduction in KD-247 IC50 for viral neutralization at 10 uM measured after 48 hrs by luciferase assay relative to KD-247. In kind it is functional.
The nature of data set [7]: Acute toxicity in rhesus monkey assessed as effect on pulse rate at 24 mg/kg, iv measured after 24 hrs. In kind it is organism-based, Macaca mulatta. The conditions noted are these: in vivo.
The nature of data set [8]: Volume of distribution in rhesus monkey at 24 mg/kg, iv measured upto 6 hrs by HPLC analysis. In kind it is ADME, organism-based, Macaca mulatta. The conditions noted are these: in vivo.
Data set [9] can be described thus: Acute toxicity in rhesus monkey assessed as effect on blood oxygen levels at 24 mg/kg, iv measured after 24 hrs. Format: organism-based, Macaca mulatta. The settings on record: in vivo.
A short description of data set [10]: Acute toxicity in rhesus monkey assessed as decrease in blood oxygen level at 24 mg/kg, iv measured within 15 mins. Format: organism-based, Macaca mulatta. The conditions noted are these: in vivo, 0.25 h.
Data set [11] is described as follows: Initial drug concentration in rhesus monkey blood at 24 mg/kg, iv measured upto 6 hrs by HPLC analysis. Format: ADME, organism-based, Macaca mulatta.
The nature of data set [12]: Acute toxicity in rhesus monkey assessed as animal survival at 24 mg/kg, iv measured after 24 hrs. The settings on record: in vivo. In kind it is organism-based, Macaca mulatta.
Data set [13] can be described thus: Half life in rhesus monkey at 24 mg/kg, iv measured upto 6 hrs by HPLC analysis. Format: ADME, organism-based, Macaca mulatta. The settings on record: in vivo.
The nature of data set [14]: Acute toxicity in iv dosed rhesus monkey assessed as maximum tolerated dose. In kind it is organism-based, Macaca mulatta. The conditions noted are these: in vivo.
Data set [15] in a line: Acute toxicity in rhesus monkey assessed as increase in pulse rate at 24 mg/kg, iv measured within 15 mins. Format: organism-based, Macaca mulatta. The conditions noted are these: in vivo, 0.25 h.
Data set [16] is described as follows: Half life of the compound by HPLC analysis. In kind it is physicochemical.
Data set [17] in a line: Half life in rhesus monkey at 36 mg, IM measured upto 48.1 hrs by HPLC analysis. The settings on record: in vivo. Format: ADME, Macaca mulatta.
The nature of data set [18]: Toxicity in rhesus monkey assessed as increase in pulse rate at 33.2 mg, iv measured within 25 mins. In kind it is organism-based, Macaca mulatta. The conditions noted are these: in vivo.
Data set [19] is described as follows: Cmax in rhesus monkey at 36 mg, IM measured upto 48.1 hrs by HPLC analysis. The arrangement: route intramuscular, dose 36 mg, time <=48.1. The conditions noted are these: in vivo. Format: ADME, Macaca mulatta.
Data set [20] in a line: Volume of distribution in rhesus monkey at 9 mg, IM measured upto 48.1 hrs by HPLC analysis. Format: ADME, Macaca mulatta. The settings on record: in vivo.
Data set [21] in a line: Toxicity in rhesus monkey assessed as effect on body motion at 33.2 mg, iv measured within 25 mins. Format: organism-based, Macaca mulatta. The conditions noted are these: in vivo.
Data set [22] is described as follows: Volume of distribution in rhesus monkey at 36 mg, IM measured upto 48.1 hrs by HPLC analysis. Format: ADME, Macaca mulatta. The conditions noted are these: in vivo.
The nature of data set [23]: Cmax in rhesus monkey at 18 mg, IM measured upto 48.1 hrs by HPLC analysis. Format: ADME, Macaca mulatta. The arrangement: route intramuscular, dose 18 mg, time <=48.1. The conditions noted are these: in vivo.
The nature of data set [24]: Volume of distribution in rhesus monkey at 33.2 mg, IV measured upto 72 hrs by HPLC analysis. Format: ADME, Macaca mulatta. The settings on record: in vivo.
A short description of data set [25]: Half life in rhesus monkey at 9 mg, IM measured upto 48.1 hrs by HPLC analysis. In kind it is ADME, Macaca mulatta. The settings on record: in vivo.
A short description of data set [26]: Cmax in rhesus monkey at 9 mg, IM measured upto 48.1 hrs by HPLC analysis. The arrangement: route intramuscular, dose 9 mg, time <=48.1. The settings on record: in vivo. In kind it is ADME, Macaca mulatta.
Data set [27] in a line: Half life in rhesus monkey at 18 mg, IM measured upto 48.1 hrs by HPLC analysis. Format: ADME, Macaca mulatta. The conditions noted are these: in vivo.
Data set [28] in a line: Half life in rhesus monkey at 33.2 mg, iv measured upto 72 hrs by HPLC analysis. Format: ADME, organism-based, Macaca mulatta. The conditions noted are these: in vivo.
Data set [29] in a line: Cmax in rhesus monkey at 33.2 mg, iv measured upto 72 hrs by HPLC analysis. In kind it is ADME, organism-based, Macaca mulatta. The arrangement: route intravenous, dose 33.2 mg, time <=72. The conditions noted are these: in vivo.
Data set [30] can be described thus: Volume of distribution in rhesus monkey at 18 mg, IM measured upto 48.1 hrs by HPLC analysis. In kind it is ADME, Macaca mulatta. The conditions noted are these: in vivo.

Chain of Envelope glycoprotein gp160 (Human immunodeficiency virus 1) (Q6QLK5 1-814): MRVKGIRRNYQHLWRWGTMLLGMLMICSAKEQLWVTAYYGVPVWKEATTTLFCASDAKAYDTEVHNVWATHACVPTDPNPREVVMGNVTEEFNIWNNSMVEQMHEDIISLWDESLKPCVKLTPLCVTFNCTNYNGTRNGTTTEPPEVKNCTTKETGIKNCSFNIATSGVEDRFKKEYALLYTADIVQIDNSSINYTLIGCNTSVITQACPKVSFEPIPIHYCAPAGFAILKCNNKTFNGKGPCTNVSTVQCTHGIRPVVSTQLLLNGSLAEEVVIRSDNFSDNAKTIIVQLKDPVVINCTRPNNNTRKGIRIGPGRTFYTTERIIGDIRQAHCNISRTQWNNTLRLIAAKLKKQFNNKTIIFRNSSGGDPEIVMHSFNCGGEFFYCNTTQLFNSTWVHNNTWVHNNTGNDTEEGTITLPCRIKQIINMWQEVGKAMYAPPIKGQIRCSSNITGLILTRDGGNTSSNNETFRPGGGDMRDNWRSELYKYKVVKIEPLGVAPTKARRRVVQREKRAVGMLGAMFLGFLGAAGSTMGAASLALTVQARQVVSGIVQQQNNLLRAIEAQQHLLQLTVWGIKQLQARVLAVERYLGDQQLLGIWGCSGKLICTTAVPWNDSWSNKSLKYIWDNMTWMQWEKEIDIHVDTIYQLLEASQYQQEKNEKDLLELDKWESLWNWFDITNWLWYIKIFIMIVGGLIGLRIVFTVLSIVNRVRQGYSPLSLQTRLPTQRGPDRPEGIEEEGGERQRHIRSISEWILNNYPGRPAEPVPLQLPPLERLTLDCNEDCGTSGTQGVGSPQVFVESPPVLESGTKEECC

In the case of `COCCOCCOCCOCCOCCNC(=O)CCC(=O)OC(CCCNC(=N)N)C(=O)NCCN1CCC(NC(=O)C(=O)Nc2ccc(Cl)cc2)CC12CCCCC2` (centres undefined) [listing 1 of 2 here], the degraded at 1 min, 10 umol in [1] is 0%. Besides, the degraded at 5 min, 10 umol in data set [2] came to 0%. Also, in data set [3], the degraded at 25 min, 10 umol is 20%.

`CCCCCCCCCCCCCCCCNC(=O)CCC(=O)OC(CCCN)C(=O)NCCN1CCC(NC(=O)C(=O)Nc2ccc(Cl)cc2)CC12CCCCC2` (centres undefined): the CC50 – broadly, the concentration at which the toxic effect on the cells reaches its halfway point – in data set [4] was determined as 5.7 µM.

On to `COCCOCCOCCOCCOCCNC(=O)CCC(=O)OC(CCCNS(=O)(=O)c1ccc([N+](=O)[O-])cc1)C(=O)NCCN1CCC(NC(=O)C(=O)Nc2ccc(Cl)cc2)CC12CCCCC2` (centres undefined), for which the CC50 in [4] amounted to 174 µM.

With `N=C(N)NCC(=O)NCCCC[C@H](NC(=N)N)C(=O)NCCN1CCC(NC(=O)C(=O)Nc2ccc(Cl)cc2)CC12CCCCC2` (some centres undefined), the CC50 in data set [4] was determined as 42 µM.

For the compound `COCCOCCOCCOCCOCCOCCOCCOCCOCCOCCOCCOCCNC(=O)CCC(=O)N[C@@H](CCCNC(=N)N)C(=O)NCCN1CCC(NC(=O)C(=O)Nc2ccc(Cl)cc2)CC12CCCCC2` (some centres undefined) [listing 1 of 2 here], in data set [5], the inhibition (commonly the change of the read-out against control, counted positive when it falls) was determined as 50%.

In the case of `COCCOCCOCCOCCOCCNC(=O)CCC(=O)N[C@@H](CCCNC(=N)N)C(=O)NCCN1CCC(NC(=O)C(=O)Nc2ccc(Cl)cc2)CC12CCCCC2` (some centres undefined), the CC50 in data set [4] is over 100 µM.

`N=C(N)NCCCCCCCC(=O)NCCCC[C@H](NC(=N)N)C(=O)NCCN1CCC(NC(=O)C(=O)Nc2ccc(Cl)cc2)CC12CCCCC2` (some centres undefined): the CC50 in data set [4] was 44 µM.

Consider `N=C(N)NCCCCC(=O)NCCCC[C@H](NC(=N)N)C(=O)NCCN1CCC(NC(=O)C(=O)Nc2ccc(Cl)cc2)CC12CCCCC2` (some centres undefined), for which the CC50 in [4] turned out to be 62 µM.

Turning to `CCCCCCCCCCCCCCCCNC(=O)CCC(=O)OC(CCCNS(=O)(=O)c1ccc([N+](=O)[O-])cc1)C(=O)NCCN1CCC(NC(=O)C(=O)Nc2ccc(Cl)cc2)CC12CCCCC2` (centres undefined), the CC50 in [4] was over 300 µM.

On to `N=C(N)NCCCCCCCCCCC(=O)NCCCC[C@H](NC(=N)N)C(=O)NCCN1CCC(NC(=O)C(=O)Nc2ccc(Cl)cc2)CC12CCCCC2` (some centres undefined), for which, in data set [4], the CC50 worked out at 15 µM.

With `COCCOCCOCCOCCOCCOCCOCCOCCOCCOCCOCCOCCNC(=O)CCC(=O)N[C@@H](CCCNC(=N)N)C(=O)NCCN1CCC(NC(=O)C(=O)Nc2ccc(Cl)cc2)CC12CCCCC2` (some centres undefined) [listing 2 of 2 here], the “fold change (FC)” value in [6] was found to be 20. In addition, the CC50 in data set [4] was over 100 µM.

For the compound `N=C(N)NCCCCCCCCCCC(=O)NCCN1CCC(NC(=O)C(=O)Nc2ccc(Cl)cc2)CC12CCCCC2` (centres undefined), the CC50 in [4] came out at 1.1 µM.

Consider `COCCOCCOCCOCCOCCOCCOCCOCCOCCOCCOCCOCCOCCOCCOCCOCCOCCOCCOCCOCCOCCOCCOCCOCCNC(=O)CCC(=O)N[C@@H](CCCNC(=N)N)C(=O)NCCN1CCC(NC(=O)C(=O)Nc2ccc(Cl)cc2)CC12CCCCC2` (some centres undefined), for which the inhibition in [5] was determined as 65%. Moreover, in data set [4], the CC50 is 40 µM.

With `N=C(N)NCCCCC(=O)NCCN1CCC(NC(=O)C(=O)Nc2ccc(Cl)cc2)CC12CCCCC2.O=C(O)C(F)(F)F.O=C(O)C(F)(F)F` (centres undefined), the Activity result in data set [7] is given as “Non-Toxic”; in [9], “Non-Toxic”; in data set [10], “Toxic”; in data set [12], “Non-Toxic”; in data set [15] it was “Toxic”. Besides, in data set [8], the Vd came out at 10.8 L. Also, the C0 at 6 h in [11] was 23.3 µM. For the same compound, the half-life (commonly how long it takes for the measured level to halve) in data set [13] was 31 min. In addition, the MTD – broadly, the largest dose that counted as tolerated – in [14] came to 24 mg/kg.

For the compound `N=C(N)NCCCCC(=O)NCCN1CCC(NC(=O)C(=O)Nc2ccc(Cl)cc2)CC12CCCCC2` (centres undefined), the CC50 in [4] worked out at 65 µM.

Consider `CC1(C)CC(NC(=O)C(=O)Nc2ccc(Cl)cc2)CC(C)(C)N1`, for which the CC50 in [4] amounted to 132 µM.

`CCCCCCCCCCCCCCCCNC(=O)CCC(=O)OC(CCCNC(=N)N)C(=O)NCCN1CCC(NC(=O)C(=O)Nc2ccc(Cl)cc2)CC12CCCCC2` (centres undefined): the CC50 in data set [4] came out at 17 µM.

`N=C(N)NCCCC[C@H](NC(=N)N)C(=O)NCCN1CCC(NC(=O)C(=O)Nc2ccc(Cl)cc2)CC12CCCCC2` (some centres undefined): the 50% cytotoxic concentration (CC50) in data set [4] amounted to 46 µM.

`COCCOCCOCCOCCOCCNC(=O)CCC(=O)OC(CCCNC(=N)N)C(=O)NCCN1CCC(NC(=O)C(=O)Nc2ccc(Cl)cc2)CC12CCCCC2` (centres undefined) [listing 2 of 2 here] showed a half-life in [16] of 126 min. The CC50 in data set [4] was 109 µM.

With `N=C(N)NCCCCCCCC(=O)NCCN1CCC(NC(=O)C(=O)Nc2ccc(Cl)cc2)CC12CCCCC2` (centres undefined), the CC50 in data set [4] is over 300 µM.

Take `COCCOCCOCCOCCOCCOCCOCCOCCOCCOCCOCCOCCNC(=O)CCC(=O)N[C@@H](CCCNC(=N)N)C(=O)NCCN1CCC(NC(=O)C(=O)Nc2ccc(Cl)cc2)CC12CCCCC2.O=C(O)C(F)(F)F.O=C(O)C(F)(F)F` (some centres undefined): the half-life in data set [17] was found to be 86.4 min; in [25], 47.6 min; in [27], 58.9 min. The Activity result in data set [18] and in data set [21] was “Toxic” in each case. Moreover, the Cmax (usually the peak of the concentration-time curve) was 128 µM in data set [19], 59.4 µM in data set [23], 56.4 µM in data set [26] and 39.5 µM in data set [29]. Besides, the Vd in [20] amounted to 114 mL; in data set [22], 200 mL; in data set [24], 592 mL; in data set [30], 215 mL. In addition, the t1/2 in data set [28] is given as 107.4 min. Moreover, the MTD in data set [14] came out at 3.78 mg/kg.

As to `COCCOCCOCCOCCOCCNC(=O)CCC(=O)OC(CCCN)C(=O)NCCN1CCC(NC(=O)C(=O)Nc2ccc(Cl)cc2)CC12CCCCC2` (centres undefined), in data set [4], the CC50 came out at 81 µM.
